Measured values as given in patent publication US20200290950A1, “ALKAMIDE COMPOUNDS AND USES THEREOF” (NORTH CAROLINA STATE UNIVERSITY, priority 2017, published 2020).

Key:
TRPA1 = molecular target: T1, TRPA1 (Mus musculus, UniProt Q8BLA8); assay: Calcium response of DRG neurons to mustard (allyl isothiocyanate); format: cell-based; settings: cultured DRG neurons, fluorescence microscopy
T1 construct: The receptors TRPA1 and TRPV1 are expressed on neurons; from tissue; host or cells: primary dorsal root ganglion neurons from mice
From the text: FIG. 11. Calcium response from DRG sensory neurons to alkamide of transient receptors. Mustard a TRPA1-receptor agonist activates DRG neurons in gray (A) and capsaicin, an agonist for TRPV1-receptors in the DRG neurons in red (B). Ligand A15 inhibits both TRPA1 and TRPV1 receptors activation in orange; however, 85Y a synthetic ligand only reduces the inhibition of TRPA1 but not TRPV1 receptors in blue. Total number of neurons (n)=135-145; p≤0.05.
Several different model systems were utilized for these experiments. In one model, dorsal root ganglia were obtained from mice and the neurons cultured in vitro. The neurons were then stimulated in the presence/absence of A15 and YM8-85 and the calcium responses monitored by fluorescence microscopy. In the second model, the alkamides were applied to mouse skin in mineral oil. The reactions of these mice to heat, cold, and tactile stimulation was then compared with mice that had not received treatment with A15. […] Alkamides were applied to sensitized animals and then ear swelling and bouts of scratching were monitored.
In vitro DRG neuron responses. […] Neurons were stimulated with mustard (allyl isothiocyanate) (A) an agonist for the receptor TRPA-1 or capsaicin (B) an agonist for the receptor TRPV-1 and calcium responses were measured in individual neurons by fluorescence microscopy. […]

TDI-induced ear swelling = format: in vivo, mouse
From the text: (§1) Several different model systems were utilized for these experiments. In one model, dorsal root ganglia were obtained from mice and the neurons cultured in vitro. The neurons were then stimulated in the presence/absence of A15 and YM8-85 and the calcium responses monitored by fluorescence microscopy. In the second model, the alkamides were applied to mouse skin in mineral oil. The reactions of these mice to heat, cold, and tactile stimulation was then compared with mice that had not received treatment with A15. In a third model, mice were sensitized to the chemical compound toluene-2,4-diisocyanate (TDI). TDI is an industrial chemical which causes hypersensitive skin lesions and itching in exposed humans and animals. The physiological response to TDI is complex involving type 2 T lymphocytes, cytokines, mast cells, and neurons. Alkamides were applied to sensitized animals and then ear swelling and bouts of scratching were monitored.
A15 and TDI induced hypersensitivity. Mice were sensitized to toluene-2,4-diisocyanate (TDI) via abdominal application. Subsequently, a hypersensitive response was induced in the ear by direct application of TDI and ear thickness measured as a sign of inflammation.

[1] = TDI-induced scratching bouts (itch); format: in vivo, mouse; settings: higher dose 1.0%
From the text: as §1
The effects of A15 on TDI-induced itch. The itch response was also monitored in mice sensitized and treated with TDI. Treated mice were video recorded and the number of scratching bouts quantified by an observer.

RBL-2H3 cells [2] = assay: β-Hexosaminidase release assay (Example 3); format: cell-based, rat
Procedure: FIGS. 21A-21D. The inhibition of degranulation is dependent on the length of the alkamide fatty acid chain. RBL-2H3 cells were plated overnight, stimulated with 1 μM A23187 (FIG. 21A) or 5 ng/mL DNP-BSA (FIG. 21B) for 1 h in the absence or presence of each compound. Graphs display the mean percent β-hex release. Data are presented as the mean of 4 experiments. Percent inhibition of degranulation of A23187 (FIG. 21C) or DNP-BSA (FIG. 21D) using data from A and B, respectively. *P<0.05, **P<0.01, ***P<0.001, one-way ANOVA with Dunnett's post hoc test compared to vehicle (A, B) or A15 (C, D).
RBL-2H3 cells (1.0×10^5 cells) were incubated with or without 0.1 μg/mL of IgE-DNP overnight in a 96 well plate at 37° C. with 5% CO2. The cells were washed with Tyrode's buffer and assayed with few modifications (Kuehn, Radinger, & Gilfillan, 2010). Briefly, IgE-DNP sensitized cells were stimulated 1 hour with 5 ng/mL of DNP-BSA in the absence or presence of each compound and incubated at 37° C. with 5% CO2. For experiments using only A23187 as the stimulant, cells were washed with Tyrode's buffer and stimulated 1 hour with 1 μM A23187 in the absence or presence of each compound and incubated at 37° C. with 5% CO2. The stimulated cells were centrifuged at 1200×g for 5 minutes. The supernatant or cell lysate (30 μL) was incubated with 3.4 mg/mL of p-NAG (10 μL) for 1 hour at 37° C. The reaction was terminated by addition of 0.2 M sodium carbonate (pH 10) and the absorbance was read at OD405 nm on a BioTek Synergy HT microplate reader. The total 3-hexosaminidase released from the cell was calculated as the difference between the OD of the supernatant and blank plus the difference between the OD of the lysate and blank. The percent β-hexosaminidase released from the cell was calculated as the difference between the OD of the supernatant and blank divided by the total β-hexosaminidase released from the cell multiplied by 100: ODsupernatant−ODblank/[(ODlysate−ODblank)+(ODsupernatant−ODblank)]*100.

RBL-2H3 cells [3] = assay: Calcium assay, Fluo-4 (Example 3); format: cell-based, rat
Procedure: FIGS. 22A-22D. The alkamide fatty acid is necessary for inhibition of calcium influx. RBL-2H3 cells were plated overnight, incubated with Fluo-4 AM for 1 h, stimulated by 1 μM A23187 (FIG. 22A) or 5 ng/mL DNP-BSA (FIG. 22B) in the absence or presence of each alkamide, and fluorescence was read for 2 mins every 5 secs. Data are presented as the mean change in RFU of 4 experiments. Percent inhibition of calcium influx was calculated for A23187 (FIG. 22C) and DNP-BSA (FIG. 22D) stimulated cells at 2 mins. *P<0.05, **P<0.01, and ***P<0.001 one-way ANOVA with Dunnett's post hoc test compared to A15.
RBL-2H3 cells (1.0×10^5 cells) were incubated overnight in a 96 well black-wall clear bottom plate with or without IgE-DNP (0.1 μg/mL) at 37° C. with 5% CO2. The assay was performed using the Fluo-4 Direct™ Calcium Assay Kit according to the manufacturer's instruction. Briefly, cells were incubated with the Fluo-4 Direct calcium reagent loading solution for 30 minutes at 37° C. with 5% CO2 then 30 mins at room temperature. Prior to stimulation, the well baseline fluorescence was measured every 5 seconds over 1 minute using a BioTek Synergy HT microplate reader with 485/20 nm excitation and 528/20 nm emission filters. Cells were stimulated with 1 μM A23187 or 5 ng/mL DNP (IgE-DNP) in the absence or presence of each compound, and the fluorescence was measured every 5 seconds over 2 minutes. The change in fluorescence (ΔRT) was calculated as the sample fluorescence minus the baseline fluorescence for each well.

RBL-2H3 cells [4] = assay: TNF-α ELISA, 18 hrs (Example 3); format: cell-based, rat; settings: 1 μM A23187, 18 hours
Procedure: FIGS. 25A-25B. […] RBL-2H3 cells were plated overnight and stimulated with 1 μM A23187 in the absence or presence of each alkamide for 18 h. Culture supernatants were analyzed for TNF-α levels by ELISA and experiments were performed in triplicate (FIG. 25A). Percent inhibition of TNF-α secretion for each alkamide listed in FIG. 25B. *P<0.05, **P<0.01, ***P<0.001, one-way ANOVA with Dunnett's post hoc test compared to vehicle (FIG. 25A) or A15 (FIG. 25B).
RBL-2H3 cells (1.0×10^5 cells) were incubated overnight in a 24 well plate at 37° C. with 5% CO2. Cells were washed with 1×PBS and stimulated with 1 μM A23187 for 18 hrs in the absence or presence of each compound. The cells were centrifuged (1200×g, 5 min) and the supernatants were collected. The concentration of TNF-α in the supernatants were determined using the TNF-α ELISA kit.

T1 sequence (Q8BLA8 whole entry): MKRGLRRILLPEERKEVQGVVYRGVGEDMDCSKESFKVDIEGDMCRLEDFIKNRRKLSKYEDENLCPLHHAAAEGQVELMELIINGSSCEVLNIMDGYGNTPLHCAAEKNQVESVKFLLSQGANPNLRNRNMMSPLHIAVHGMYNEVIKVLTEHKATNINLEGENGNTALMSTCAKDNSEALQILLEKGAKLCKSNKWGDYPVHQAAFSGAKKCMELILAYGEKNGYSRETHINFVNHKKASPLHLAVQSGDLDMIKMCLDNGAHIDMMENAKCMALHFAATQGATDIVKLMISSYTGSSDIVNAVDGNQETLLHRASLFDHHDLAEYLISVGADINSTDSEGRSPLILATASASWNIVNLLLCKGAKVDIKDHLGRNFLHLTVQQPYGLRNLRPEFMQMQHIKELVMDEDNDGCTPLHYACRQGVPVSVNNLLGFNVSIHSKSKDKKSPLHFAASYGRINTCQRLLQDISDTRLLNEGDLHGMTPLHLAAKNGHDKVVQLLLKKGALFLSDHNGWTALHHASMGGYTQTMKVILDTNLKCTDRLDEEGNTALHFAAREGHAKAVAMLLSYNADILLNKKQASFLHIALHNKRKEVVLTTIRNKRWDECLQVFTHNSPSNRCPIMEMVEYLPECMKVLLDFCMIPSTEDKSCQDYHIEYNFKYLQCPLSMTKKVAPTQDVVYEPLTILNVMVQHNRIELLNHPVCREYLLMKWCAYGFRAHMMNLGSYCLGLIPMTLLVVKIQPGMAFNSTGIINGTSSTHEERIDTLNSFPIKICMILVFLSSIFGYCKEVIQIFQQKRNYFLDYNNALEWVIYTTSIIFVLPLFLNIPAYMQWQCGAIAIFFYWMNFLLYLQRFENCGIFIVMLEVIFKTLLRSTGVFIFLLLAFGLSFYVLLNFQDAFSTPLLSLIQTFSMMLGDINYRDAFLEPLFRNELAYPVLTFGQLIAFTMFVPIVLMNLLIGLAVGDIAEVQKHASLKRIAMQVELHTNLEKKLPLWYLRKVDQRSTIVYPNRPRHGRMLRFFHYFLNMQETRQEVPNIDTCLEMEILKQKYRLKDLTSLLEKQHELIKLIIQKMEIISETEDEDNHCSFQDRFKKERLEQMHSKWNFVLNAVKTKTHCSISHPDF

DRG neuron calcium response to mustard (TRPA1 agonist) (TRPA1): inhibit
SMILES: CCCCCCCC(=O)NCC(C)C [YM8-85, N-Isobutyloctanamide]
TDI ear swelling (ear thickness) (TDI-induced ear swelling; 0.1%, first experiment (FIG. 13A)): significant responses were not seen
TDI ear swelling (ear thickness) (TDI-induced ear swelling; 0.1%, repeated experiment (FIG. 13B)): neither A15 nor YM8-85 at 0.1% produced significant inhibition
TDI ear swelling (ear thickness) (TDI-induced ear swelling; 1%, first experiment (FIG. 13A)): significant responses were not seen
scratching bouts in TDI treated mice [1]: significant inhibition of scratching
percent inhibition of degranulation (RBL-2H3 cells [2]; 5 ng/mL DNP-BSA, 1 hour): 60%
percent inhibition of degranulation (RBL-2H3 cells [2]; 1 μM A23187, 1 hour): 64%
percent inhibition of calcium influx (RBL-2H3 cells [3]; 5 ng/mL DNP-BSA, at 2 minutes): 49%
percent inhibition of calcium influx (RBL-2H3 cells [3]; 1 μM A23187, at 2 minutes): 91%
percent inhibition of TNF-α secretion (RBL-2H3 cells [4]): 43%
